How the values were obtained:
Assay type in all cases: cell-based
[1] = biological target: T1, 5-HT2C (Homo sapiens, UniProt P28335); assay: FLIPR Ca2+ flux functional assay, 5-HT2C (HEK293); conditions: HEK293 cells expressing 5-HT2C; for Emax: HEK293, agonist activity; for EC50: agonist activity
T1 construct: host or cells: HEK293
T1 sequence (P28335 33-458): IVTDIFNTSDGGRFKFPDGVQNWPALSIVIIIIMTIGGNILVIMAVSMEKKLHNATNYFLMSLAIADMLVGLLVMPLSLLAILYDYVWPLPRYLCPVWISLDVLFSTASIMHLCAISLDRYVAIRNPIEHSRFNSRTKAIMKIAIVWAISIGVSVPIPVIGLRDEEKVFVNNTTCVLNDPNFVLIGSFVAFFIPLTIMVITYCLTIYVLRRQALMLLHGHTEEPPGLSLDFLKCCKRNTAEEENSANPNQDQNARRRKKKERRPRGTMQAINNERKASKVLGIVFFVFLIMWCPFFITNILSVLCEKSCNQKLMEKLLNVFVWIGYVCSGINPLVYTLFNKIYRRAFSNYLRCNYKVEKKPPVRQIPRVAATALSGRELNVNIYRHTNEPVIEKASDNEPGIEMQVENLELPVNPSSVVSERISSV

[2] = biological target: T2, 5-HT2A (Homo sapiens, UniProt P28223); assay: FLIPR Ca2+ flux functional assay, 5-HT2A (HEK293); conditions: HEK293 cells expressing 5-HT2A; for Emax: HEK293, agonist activity; for EC50: agonist activity
T2 construct: host or cells: HEK293

[3] = biological target: T3, 5-HT2B (Homo sapiens, UniProt P41595); assay: Activation in a similar Ca2+ flux assay at a single concentration, 5-HT2B; conditions: head prints 10 µM
T3 construct: host or cells: CHO-K1
Protocol: Activity at 5-HT2A, 5-HT2B and 5-HT2C receptors was determined using a FLIPR Ca2+ flux assay at WuXi AppTec Co. Ltd. (Hong Kong) Discovery Biology Unit according to their standard protocols. Briefly, stably transfected cells expressing the receptor of interest (HEK293 for 5-HT2A and 5-HT2C; CHO-K1 for 5-HT2B) were grown and plated in a 384 well plate and incubated at 37° C. and 5% CO2 overnight. A 250 mM stock solution of probenecid in FLIPR calcium assay buffer (10 mL) was freshly prepared and combined with a fluorescent dye (Fluo-4 Direct) to give a final assay concentration of 2.5 mM. Reference compounds were 4-fold serially diluted and the screening compounds were 3-fold serially diluted in 100% DMSO for 10 points using Agilent Bravo, and 750 nL was added to a 384 well compound plate using Echo along with 30 μL assay buffer. The fluorescent dye was then added to the assay plate along with assay buffer to a final volume of 40 μL. The cell plate was incubated for 50 min at 37° C. and 5% CO2 and placed into the FLIPR Tetra along with the compound plate. 10 μL of references and compounds were then transferred from the compound plate into the cell plate and the fluorescent signal was read.
Activation data are provided in a similar assay tested at a single 10 μM concentration.

T3 sequence (P41595 whole entry, species assumed): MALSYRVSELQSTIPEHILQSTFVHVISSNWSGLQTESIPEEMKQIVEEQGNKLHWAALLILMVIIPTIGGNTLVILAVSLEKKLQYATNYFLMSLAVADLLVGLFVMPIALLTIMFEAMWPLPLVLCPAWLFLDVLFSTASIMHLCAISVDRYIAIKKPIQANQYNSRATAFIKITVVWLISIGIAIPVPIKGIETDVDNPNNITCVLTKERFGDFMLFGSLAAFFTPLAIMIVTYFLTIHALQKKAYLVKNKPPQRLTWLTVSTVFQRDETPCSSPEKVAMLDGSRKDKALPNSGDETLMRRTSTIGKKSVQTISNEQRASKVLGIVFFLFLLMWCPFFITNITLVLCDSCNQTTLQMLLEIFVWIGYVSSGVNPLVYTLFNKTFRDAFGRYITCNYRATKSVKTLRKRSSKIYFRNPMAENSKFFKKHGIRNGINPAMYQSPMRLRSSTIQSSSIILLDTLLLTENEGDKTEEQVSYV
T2 sequence (P28223 whole entry): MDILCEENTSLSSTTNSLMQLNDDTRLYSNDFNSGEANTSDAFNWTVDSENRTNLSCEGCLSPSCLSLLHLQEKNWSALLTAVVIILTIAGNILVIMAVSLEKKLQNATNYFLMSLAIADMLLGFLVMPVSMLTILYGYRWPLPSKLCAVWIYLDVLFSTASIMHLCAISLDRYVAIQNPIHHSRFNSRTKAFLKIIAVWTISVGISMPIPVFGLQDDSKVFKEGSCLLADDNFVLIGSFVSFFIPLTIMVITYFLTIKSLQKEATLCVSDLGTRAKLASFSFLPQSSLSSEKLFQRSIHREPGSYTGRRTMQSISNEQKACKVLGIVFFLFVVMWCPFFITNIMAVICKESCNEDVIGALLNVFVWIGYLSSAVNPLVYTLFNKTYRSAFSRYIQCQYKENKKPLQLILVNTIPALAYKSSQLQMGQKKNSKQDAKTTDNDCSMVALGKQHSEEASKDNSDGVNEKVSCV

Row | SMILES | Emax [1] | EC50 [1] | Emax [2] | EC50 [2] | 5-HT2B % Activation @ 10 µM [3]
1 | COc1cccc(CNCCc2n[nH]c3ccc(OC)cc23)c1 [Example A66, 2-(5-methoxy-1H-indazol-3-yl)-N-(3-methoxybenzyl)ethan-1-amine] | 53% | 1260 nM | 63% | 50 nM | 0%
2 | COc1ccc(F)c2[nH]nc(CCN3CCC3)c12 [Example A47, 3-(2-(azetidin-1-yl)ethyl)-7-fluoro-4-methoxy-1H-indazole] | 72% | 64 nM | 88% | 105 nM | 17%
3 | COc1cc2c(CCN(C)C(C)C)n[nH]c2cc1F [Example A7, N-(2-(6-fluoro-5-methoxy-1H-indazol-3-yl)ethyl)-N-methylpropan-2-amine] | 67% | 4180 nM | 63% | 318 nM | 7%
4 | COc1cc(F)cc2[nH]nc(CCN3CCC4CC43)c12 (stereo not shown) [Example A43, 3-(2-(2-azabicyclo[3.1.0]hexan-2-yl)ethyl)-6-fluoro-4-methoxy-1H-indazole] | 99% | 39.9 nM | 89% | 29.7 nM | 102%
5 | COc1cc(F)c2[nH]nc(CCN(C)C(C)C)c2c1 [Example A52, N-(2-(7-fluoro-5-methoxy-1H-indazol-3-yl)ethyl)-N-methylpropan-2-amine] | 0% | > 10000 nM | 42% | 650 nM | 0%
6 | COc1c(F)ccc2[nH]nc(CCN(C)C(C)C)c12 [Example A3, N-(2-(5-fluoro-4-methoxy-1H-indazol-3-yl)ethyl)-N-methylpropan-2-amine] | 80% | 170 nM | 76% | 96.5 nM | 17%
7 | COc1cc(F)c2[nH]nc(CCN3CCC3)c2c1 [Example A53, 3-(2-(azetidin-1-yl)ethyl)-7-fluoro-5-methoxy-1H-indazole] | 48% | 1180 nM | 94% | 318 nM | 0%
8 | CCN(C)CCc1n[nH]c2ccc(F)c(F)c12 [Example A70, 2-(4,5-difluoro-1H-indazol-3-yl)-N-ethyl-N-methylethan-1-amine] | 76% | 226 nM | 78% | 383 nM | 0%
9 | COc1ccccc1CNCCc1n[nH]c2cc(F)cc(F)c12 [Example A33, 2-(4,6-difluoro-1H-indazol-3-yl)-N-(2-methoxybenzyl)ethan-1-amine] | 90% | 159 nM | 91% | 14.4 nM | 23%
10 | CN(C)CCc1n[nH]c2c(F)cccc12 [Example A67, 2-(7-fluoro-1H-indazol-3-yl)-N,N-dimethylethan-1-amine] | 37% | 1670 nM | 63% | 422 nM | 0%
11 | COc1ccc2[nH]nc(CCNCc3ccccc3)c2c1 [Example A62, N-benzyl-2-(5-methoxy-1H-indazol-3-yl)ethan-1-amine] | 85% | 179 nM | 81% | 29.1 nM | 0%
12 | COc1cc2c(CCN3CC(C)C3)n[nH]c2cc1F [Example A57, 6-fluoro-5-methoxy-3-(2-(3-methylazetidin-1-yl)ethyl)-1H-indazole] | 3% | > 10000 nM | 70% | 610 nM | 0%
13 | Fc1ccc2[nH]nc(CCN3CCC3)c2c1F [Example A72, 3-(2-(azetidin-1-yl)ethyl)-4,5-difluoro-1H-indazole] | 37% | 973 nM | 78% | 1350 nM | 
14 | COc1ccccc1CNCCc1n[nH]c2cccc(F)c12 [Example A34, 2-(4-fluoro-1H-indazol-3-yl)-N-(2-methoxybenzyl)ethan-1-amine] | 84% | 167 nM | 86% | 55.2 nM | 0%
15 | CN(C)CCc1n[nH]c2ccc(F)c(F)c12 [Example A69, 2-(4,5-difluoro-1H-indazol-3-yl)-N,N-dimethylethan-1-amine] | 62% | 132 nM | 79% | 276 nM | 5%
16 | COc1ccc2[nH]nc(CCN(C)C)c2c1F [Example A9, 2-(4-fluoro-5-methoxy-1H-indazol-3-yl)-N,N-dimethylethan-1-amine] | 73% | 1100 nM | 75% | 809 nM | 0%
17 | COc1cc(F)c2[nH]nc(CCN(C)C)c2c1 [Example A50, 2-(7-fluoro-5-methoxy-1H-indazol-3-yl)-N,N-dimethylethan-1-amine] | 11% | > 10000 nM | 79% | 242 nM | 2%
18 | COc1ccc(F)c2[nH]nc(CCN3CCCC3)c12 [Example A48, 7-fluoro-4-methoxy-3-(2-(pyrrolidin-1-yl)ethyl)-1H-indazole] | 67% | 556 nM | 70% | 533 nM | 
19 | COc1cc(F)cc2[nH]nc(CCN(C)C(C)C)c12 [Example A40, N-(2-(6-fluoro-4-methoxy-1H-indazol-3-yl)ethyl)-N-methylpropan-2-amine] | 68% | > 10000 nM | 72% | 322 nM | 0%
20 | COc1cc(F)cc2[nH]nc(CCN3CCCC3)c12 [Example A42, 6-fluoro-4-methoxy-3-(2-(pyrrolidin-1-yl)ethyl)-1H-indazole] | 89% | 944 nM | 81% | 697 nM | 
21 | COc1cc(F)c2[nH]nc(CCN3CCCC3)c2c1 [Example A54, 7-fluoro-5-methoxy-3-(2-(pyrrolidin-1-yl)ethyl)-1H-indazole] | 38% | 3260 nM | 75% | 1380 nM | 
22 | CCN(C)CCc1n[nH]c2c(F)cccc12 [Example A68, N-ethyl-2-(7-fluoro-1H-indazol-3-yl)-N-methylethan-1-amine] | 32% | 1920 nM | 40% | 469 nM | 0%
23 | COc1cc(F)cc2[nH]nc(CCN(C)C)c12 [Example A38, 2-(6-fluoro-4-methoxy-1H-indazol-3-yl)-N,N-dimethylethan-1-amine] | 75% | 203 nM | 77% | 75 nM | 0%
24 | COc1ccc2[nH]nc(CCNCc3ccccc3OC)c2c1 [Example A63, 2-(5-methoxy-1H-indazol-3-yl)-N-(2-methoxybenzyl)ethan-1-amine] | 88% | 32.5 nM | 92% | 2.24 nM | 11%
25 | CN(C)CCc1n[nH]c2cccc(F)c12 [Example A13, 2-(4-fluoro-1H-indazol-3-yl)-N,N-dimethylethan-1-amine] | 48% | 944 nM | 55% | 2050 nM | 0%
26 | COc1ccc2[nH]nc(CCNCc3ccccc3F)c2c1 [Example A64, N-(2-fluorobenzyl)-2-(5-methoxy-1H-indazol-3-yl)ethan-1-amine] | 82% | 602 nM | 79% | 68.7 nM | 0%
27 | COc1cc2c(CCN3CC4CC4C3)n[nH]c2cc1F (stereo not shown) [Example A61, 3-(2-(3-azabicyclo[3.1.0]hexan-3-yl)ethyl)-6-fluoro-5-methoxy-1H-indazole] | 21% | > 10000 nM | 67% | 1580 nM | 
28 | COc1cc(F)cc2[nH]nc(CCN3CCC3)c12 [Example A41, 3-(2-(azetidin-1-yl)ethyl)-6-fluoro-4-methoxy-1H-indazole] | 65% | 1420 nM | 78% | 1080 nM | 
29 | COc1cc2c(CCN3CCC4CC43)nn(C)c2cc1F (stereo not shown) [Example A75, 3-(2-(2-azabicyclo[3.1.0]hexan-2-yl)ethyl)-6-fluoro-5-methoxy-1-methyl-1H-indazole] |  |  | 77% | 63.4 nM | 
